This note sets out measurements from US9586951B2 (FUJIFILM Corporation, priority 2013, dated 2017).

Where only a bound is given, the exact number is not on record here.

The target in this experiment is T1, ATM (Homo sapiens, UniProt Q13315).
T1 construct: detecting phosphorylation of Chk2 in a human non-small cell lung cancer cell line NCI-H460 (ATCC company); host or cells: NCI-H460 human non-small cell lung cancer cells
T1 sequence (Q13315 whole entry): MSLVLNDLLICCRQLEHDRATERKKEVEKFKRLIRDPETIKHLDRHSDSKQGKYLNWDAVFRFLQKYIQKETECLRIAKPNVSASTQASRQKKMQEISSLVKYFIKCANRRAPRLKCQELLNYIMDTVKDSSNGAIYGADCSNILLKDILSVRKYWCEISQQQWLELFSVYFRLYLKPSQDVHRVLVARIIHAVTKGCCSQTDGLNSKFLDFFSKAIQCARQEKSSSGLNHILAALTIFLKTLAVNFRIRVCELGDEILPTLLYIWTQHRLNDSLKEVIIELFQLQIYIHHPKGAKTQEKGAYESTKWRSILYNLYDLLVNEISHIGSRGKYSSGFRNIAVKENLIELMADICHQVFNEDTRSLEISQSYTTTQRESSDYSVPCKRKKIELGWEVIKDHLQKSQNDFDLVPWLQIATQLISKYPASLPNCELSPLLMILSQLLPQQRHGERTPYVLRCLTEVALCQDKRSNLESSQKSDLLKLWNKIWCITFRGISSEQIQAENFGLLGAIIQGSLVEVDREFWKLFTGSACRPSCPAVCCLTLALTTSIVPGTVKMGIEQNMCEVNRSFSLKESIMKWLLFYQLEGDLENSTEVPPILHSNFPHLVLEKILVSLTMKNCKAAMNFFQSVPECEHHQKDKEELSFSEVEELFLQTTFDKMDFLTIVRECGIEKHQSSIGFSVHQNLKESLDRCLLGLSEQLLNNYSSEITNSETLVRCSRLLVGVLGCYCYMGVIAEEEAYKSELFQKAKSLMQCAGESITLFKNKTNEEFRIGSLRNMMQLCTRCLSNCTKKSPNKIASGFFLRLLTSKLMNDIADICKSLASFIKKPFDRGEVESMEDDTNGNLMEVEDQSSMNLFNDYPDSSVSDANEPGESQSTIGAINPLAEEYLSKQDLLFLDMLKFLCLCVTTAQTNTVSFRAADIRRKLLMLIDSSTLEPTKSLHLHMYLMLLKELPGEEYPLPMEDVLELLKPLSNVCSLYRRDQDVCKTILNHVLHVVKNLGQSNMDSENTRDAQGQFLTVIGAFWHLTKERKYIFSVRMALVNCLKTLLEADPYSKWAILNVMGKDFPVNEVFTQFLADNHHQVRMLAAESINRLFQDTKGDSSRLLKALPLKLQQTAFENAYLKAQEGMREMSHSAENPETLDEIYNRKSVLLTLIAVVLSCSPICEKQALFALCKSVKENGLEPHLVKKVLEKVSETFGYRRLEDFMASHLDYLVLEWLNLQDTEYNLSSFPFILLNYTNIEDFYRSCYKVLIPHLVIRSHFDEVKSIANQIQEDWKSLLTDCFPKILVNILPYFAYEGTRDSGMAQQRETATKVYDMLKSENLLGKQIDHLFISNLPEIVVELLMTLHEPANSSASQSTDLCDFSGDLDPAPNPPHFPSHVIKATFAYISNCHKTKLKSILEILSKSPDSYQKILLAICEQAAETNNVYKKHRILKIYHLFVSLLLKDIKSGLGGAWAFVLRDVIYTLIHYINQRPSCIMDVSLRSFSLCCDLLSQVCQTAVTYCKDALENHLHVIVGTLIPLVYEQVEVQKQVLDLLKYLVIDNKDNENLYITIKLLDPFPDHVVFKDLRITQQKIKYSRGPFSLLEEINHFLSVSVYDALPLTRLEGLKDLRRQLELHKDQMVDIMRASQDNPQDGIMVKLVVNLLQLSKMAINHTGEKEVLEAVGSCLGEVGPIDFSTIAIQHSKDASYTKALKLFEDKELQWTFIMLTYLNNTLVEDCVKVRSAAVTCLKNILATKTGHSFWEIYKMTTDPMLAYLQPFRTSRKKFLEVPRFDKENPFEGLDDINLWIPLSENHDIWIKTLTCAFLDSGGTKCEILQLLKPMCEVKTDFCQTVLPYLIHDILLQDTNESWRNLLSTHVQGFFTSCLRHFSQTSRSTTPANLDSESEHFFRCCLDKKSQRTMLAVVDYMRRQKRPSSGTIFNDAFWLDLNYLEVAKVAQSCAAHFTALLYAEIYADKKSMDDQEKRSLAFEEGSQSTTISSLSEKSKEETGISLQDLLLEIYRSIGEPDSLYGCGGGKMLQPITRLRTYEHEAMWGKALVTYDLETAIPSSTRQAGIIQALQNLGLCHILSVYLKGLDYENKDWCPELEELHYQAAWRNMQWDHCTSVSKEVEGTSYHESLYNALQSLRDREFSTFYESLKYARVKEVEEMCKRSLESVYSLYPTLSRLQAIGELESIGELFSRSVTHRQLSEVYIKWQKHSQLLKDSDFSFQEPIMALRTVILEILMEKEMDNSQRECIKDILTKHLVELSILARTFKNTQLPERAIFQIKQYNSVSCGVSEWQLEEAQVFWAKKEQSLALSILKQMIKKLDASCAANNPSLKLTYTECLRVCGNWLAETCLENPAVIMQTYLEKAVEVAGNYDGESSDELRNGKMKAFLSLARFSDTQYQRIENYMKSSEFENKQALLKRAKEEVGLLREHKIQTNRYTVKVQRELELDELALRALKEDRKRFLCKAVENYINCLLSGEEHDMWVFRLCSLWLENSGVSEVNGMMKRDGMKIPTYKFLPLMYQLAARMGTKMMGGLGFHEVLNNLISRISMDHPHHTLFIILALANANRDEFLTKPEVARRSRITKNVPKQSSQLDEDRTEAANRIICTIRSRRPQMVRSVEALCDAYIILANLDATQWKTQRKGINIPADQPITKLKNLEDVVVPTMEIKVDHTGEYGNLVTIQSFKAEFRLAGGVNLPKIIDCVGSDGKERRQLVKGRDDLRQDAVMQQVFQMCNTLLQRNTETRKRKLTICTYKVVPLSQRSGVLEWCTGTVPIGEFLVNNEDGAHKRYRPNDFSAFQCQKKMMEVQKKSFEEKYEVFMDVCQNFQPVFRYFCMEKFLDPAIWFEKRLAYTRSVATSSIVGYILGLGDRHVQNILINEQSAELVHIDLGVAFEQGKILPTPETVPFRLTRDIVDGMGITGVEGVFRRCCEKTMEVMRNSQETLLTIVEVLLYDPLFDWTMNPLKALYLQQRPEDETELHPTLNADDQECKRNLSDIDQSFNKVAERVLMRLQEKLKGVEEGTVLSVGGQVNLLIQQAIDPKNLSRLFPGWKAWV
In words: ATM inhibition test (phosphorylation of Chk2 generated by ionizing radiation, AlphaScreen SureFire). It counts as cell-based. The conditions noted are these: phosphorylated Chk2 in NCI-H460 cells, ionizing radiation 8Gy, 1 hour after test compound treatment; read-out: ATM inhibitory activity. Summed up:
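NCI-H460 cells, compound 1 h pre-treatment, 8Gy IR, further 1 h at 37° C in 5% CO2. Read-out: phospho-Chk2 via AlphaScreen SureFire. % inhibition relative to IR-induced signal window (irradiated vs non-irradiated drug-free wells).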
A general note: In Alpha technology, singlet oxygen from a donor bead excites a nearby acceptor bead.
As for `Cc1ccc(C(Nc2ccc3c(c2)Sc2cccc(-c4cc(N5CCOCC5)cc(=O)[nH]4)c2S3)C2CN(CCO)CCO2)nc1` (racemic) [Example 1-57-2, 6-(7-(((4-(2-Hydroxyethyl)morpholin-2-yl)(5-methylpyridin-2-yl)methyl)amino)thianthren-1-yl)-4-morpholinopyridin-2(1H)-one], the IC50 is less than 100 nM.

`CC(CN1CCCC(O)C1)Nc1ccc2c(c1)Sc1cccc(-c3cc(N4CCOCC4)cc(=O)[nH]3)c1S2` (stereo not shown) [Example 1-13-6, 6-(7-((1-(3-Hydroxypiperidin-1-yl)propan-2-yl)amino)thianthren-1-yl)-4-morpholino pyridin-2(1H)-one]: the IC50 is 100 to 500 nM.

On to `CC1CC(Nc2ccc3c(c2)Cc2cccc(-c4cc(N5CCOCC5)cc(=O)[nH]4)c2O3)CCN1CCc1ccccc1` (stereo not shown) [Example 2-19-1, 6-(7-((2-Methyl-1-phenethylpiperidin-4-yl)amino)-9H-xanthen-4-yl)-4-morpholinopyridin-2(1H)-one], for which the IC50 lay within 100 to 500 nM.

Consider `Cc1ccc(C(CCN(C)CCN(C)C)Nc2ccc3c(c2)Sc2cccc(-c4cc(N5CCOCC5)cc(=O)[nH]4)c2S3)nc1` (single isomer, unassigned) [Example 10-5-1, 6-(7-((3-((2-(Dimethylamino)ethyl)(methyl)amino)-1-(5-methylpyridin-2-yl)propyl)amino)thianthren-1-yl)-4-morpholinopyridin-2(1H)-one], for which the IC50 is less than 100 nM.

In the case of `CNCC(Nc1ccc2c(c1)Sc1cccc(-c3cc(N4CCOCC4)cc(=O)[nH]3)c1S2)c1cccc(C)n1` (single isomer, unassigned) [Example 1-19-4-2, 6-(7-((2-(Methylamino)-1-(6-methylpyridin-2-yl)ethyl)amino)thianthren-1-yl)-4-morpholinopyridin-2(1H)-one], the IC50 was in the range of 500 to 2000 nM.

In the case of `O=c1cc(N2CCOCC2)cc(-c2cccc3c2Oc2ccc(NCc4cscn4)cc2C3)[nH]1` [Example 2-14-36, 4-Morpholino-6-(7-((thiazol-4-ylmethyl)amino)-9H-xanthen-4-yl) pyridin-2(1H)-one], the IC50 was in the range of 100 to 500 nM.

Take `Cc1ccc(C(CCN(C)CCO)Nc2ccc3c(c2)Sc2cccc(-c4cc(N5CCOCC5)cc(=O)[nH]4)c2S3)nc1` (single isomer, unassigned) [Example 10-4-1, 6-(7-((3-((2-Hydroxyethyl)(methyl)amino)-1-(5-methylpyridin-2-yl)propyl)amino)thianthren-1-yl)-4-morpholinopyridin-2(1H)-one]: the IC50 is less than 100 nM.

On to `O=c1cc(N2CCOCC2)cc(-c2cccc3c2Oc2ccc(NC4CCN(c5ccccn5)CC4)cc2C3)[nH]1` [Example 2-2-27, 4-Morpholino-6-(7-((1-(pyridin-2-yl)piperidin-4-yl)amino)-9H-xanthen-4-yl) pyridin-2(1H)-one], for which the IC50 was in the range of 100 to 500 nM.

As to `Cc1ccnc(C(C)Nc2ccc3c(c2)Cc2ccnc(-c4cc(N5CCOCC5)cc(=O)[nH]4)c2O3)c1` (stereo not shown) [Example 2-42-5, 6-(7-((1-(4-Methylpyridin-2-yl)ethyl)amino)-5H-chromeno[2,3-c]pyridin-1-yl)-4-morpholinopyridin-2(1H)-one], the IC50 was in the range of 100 to 500 nM.

As for `CC(Nc1ccc2c(c1)Sc1cccc(-c3cc(N4CCOCC4)cc(=O)[nH]3)c1S2)c1cc(C#N)ncn1` (single isomer, unassigned) [Example 1-12-146-2, 6-(1-((6-(4-morpholino-6-oxo-1,6-dihydropyridin-2-yl)thianthren-2-yl)amino)ethyl)pyrimidine-4-carbonitrile], the IC50 fell in the range of 100 to 500 nM.

Regarding `O=c1cc(N2CCOCC2)cc(-c2cccc3c2Sc2ccc(NCc4cccnc4)cc2S3)[nH]1` [Example 1-12-25, 4-Morpholino-6-(7-((pyridin-3-ylmethyl)amino)thianthren-1-yl)pyridin-2 (1H)-one], the IC50 lay in the range of 100 to 500 nM.

Regarding `O=c1cc(N2CCOCC2)cc(-c2cccc3c2Oc2ccc(NC4CCOC4)cc2C3)[nH]1` (stereo not shown) [Example 2-16, 4-Morpholino-6-(7-((tetrahydrofuran-3-yl)amino)-9H-xanthen-4-yl)pyridin-2(1H)-one], the IC50 is 500 to 2000 nM.

In the case of `O=c1cc(N2CCOCC2)cc(-c2cccc3c2Oc2ccc(NC4CCN(CCc5ccccc5)C4)cc2S3)[nH]1` (stereo not shown) [Example 4-6-1, 4-Morpholino-6-(8-((1-phenethylpyrrolidin-3-yl)amino)phenoxathiin-4-yl)pyridin-2(1H)-one], the IC50 was in the range of 100 to 500 nM.

In the case of `Cc1ccnc(C(CO)Nc2ccc3c(c2)Cc2cccc(-c4cc(N5CCOCC5)cc(=O)[nH]4)c2O3)c1` (racemic) [Example 2-14-39, 6-(7-((2-Hydroxy-1-(4-methylpyridin-2-yl)ethyl)amino)-9H-xanthen-4-yl)-4-morpholino pyridin-2 (1H)-one], the IC50 fell in the range of 100 to 500 nM.

Take `O=c1cc(N2CCOCC2)cc(-c2cccc3c2Oc2ccc(NCc4ccoc4)cc2C3)[nH]1` [Example 2-14-34, 6-(7-((Furan-3-ylmethyl)amino)-9H-xanthen-4-yl)-4-morpholino pyridin-2(1H)-one]: the IC50 was 100 to 500 nM.

On to `CC(CNc1ccc2c(c1)Sc1cccc(-c3cc(N4CCOCC4)cc(=O)[nH]3)c1S2)N1CCOCC1` (single isomer, unassigned) [Example 1-9-2-2, 4-morpholino-6-(7-((2-morpholinopropyl)amino)thianthren-1-yl)pyridin-2(1H)-one], for which the IC50 lay in the range of 100 to 500 nM.

In the case of `CC(Nc1ccc2c(c1)Cc1ccnc(-c3cc(N4CCOCC4)cc(=O)[nH]3)c1O2)c1cccc(F)n1` (stereo not shown) [Example 2-41-13, 6-(7-((1-(6-Fluoropyridin-2-yl)ethyl)amino)-5H-chromeno[2,3-c]pyridin-1-yl]-4-morpholino pyridin-2(1H)-one], the IC50 was in the range of 100 to 500 nM.

As to `CN1CC(Nc2ccc3c(c2)Sc2cccc(-c4cc(N5CCOCC5)cc(=O)[nH]4)c2S3)C(N2CCOCC2)C1` (racemic) [Example 11-2, 6-(7-((1-Methyl-4-morpholinopyrrolidin-3-yl)amino)thianthren-1-yl)-4-morpholinopyridin-2(1H)-one], the IC50 was in the range of 100 to 500 nM.

Regarding `CCCCN1CCCC(Nc2ccc3c(c2)Cc2cccc(-c4cc(N5CCOCC5)cc(=O)[nH]4)c2O3)C1` (stereo not shown) [Example 2-19-4, 6-(7-((1-Butylpiperidin-3-yl)amino)-9H-xanthen-4-yl)-4-morpholinopyridin-2(1H)-one], the IC50 lay within 100 to 500 nM.

As to `CN1CC(CNc2ccc3c(c2)Sc2cccc(-c4cc(N5CCOCC5)cc(=O)[nH]4)c2S3)C1` [Example 1-2-1, 6-(7-(((1-methylazetidin-3-yl)methyl)amino)thianthren-1-yl)-4-morpholinopyridin-2(1H)-one], the IC50 fell in the range of 100 to 500 nM.

Turning to `COc1cccc(CNc2ccc3c(c2)Cc2cccc(-c4cc(N5CCOCC5)cc(=O)[nH]4)c2O3)n1` [Example 2-2-32, 6-(7-(((6-Methoxypyridin-2-yl)methyl)amino)-9H-xanthen-4-yl)-4-morpholino pyridin-2(1H)-one], the IC50 lay within 100 to 500 nM.

For the compound `CC(Nc1ccc2c(c1)Sc1cccc(-c3cc(N4CCOCC4)cc(=O)[nH]3)c1S2)[C@H](C)N1CCOCC1` (stereo partly shown) [Example 1-21-5, 6-(7-(((3 S)-3-morpholinobutan-2-yl)amino)thianthren-1-yl)-4-morpholinopyridin-2(1H)-one], the IC50 was 100 to 500 nM.

`CCCC(Nc1ccc2c(c1)Sc1cccc(-c3cc(N4CCOCC4)cc(=O)[nH]3)c1S2)c1cncc(OC)c1` (stereo not shown) [Example 1-12-26, 6-(7-((1-(5-Methoxypyridin-3-yl)butyl)amino)thianthren-1-yl)-4-morpholino pyridin-2 (1H)-one]: the IC50 lay within 100 to 500 nM.

As for `O=c1cc(N2CCOCC2)cc(-c2cccc3c2Oc2ccc(NC4CCN(Cc5ccc(OC6CCOCC6)nc5)CC4)cc2C3)[nH]1` [Example 2-28-21, 4-Morpholino-6-(7-((1-((6-((tetrahydro-2H-pyran-4-yl)oxy)pyridin-3-yl)methyl)piperidin-4-yl)amino)-9H-xanthen-4-yl)pyridin-2(1H)-one], the IC50 was in the range of 100 to 500 nM.

On to `O=c1cc(N2CCOCC2)cc(-c2cccc3c2Oc2ccc(NCCc4cccnc4)cc2C3)[nH]1` [Example 2-12, 4-morpholino-6-(7-((2-(pyridin-3-yl)ethyl)amino)-9H-xanthen-4-yl)pyridin-2(1H)-one], for which the IC50 was 100 to 500 nM.

Turning to `CN(C)Cc1cc(CNc2ccc3c(c2)Cc2cccc(-c4cc(N5CCOCC5)cc(=O)[nH]4)c2O3)ccn1` [Example 2-21-8, 6-(7-(((2-((Dimethylamino)methyl)pyridin-4-yl)methyl)amino)-9H-xanthen-4-yl)-4-morpholino pyridin-2(1H)-one], the IC50 lay within 500 to 2000 nM.

As for `COc1cncc(C(C)Nc2ccc3c(c2)Sc2cccc(-c4cc(N5CCOCC5)cc(=O)[nH]4)c2O3)c1` (stereo not shown) [Example 4-4-1, 6-(8-((1-(5-Methoxypyridin-3-yl)ethyl)amino)phenoxathiin-4-yl)-4-morpholinopyridin-2(1H)-one], the IC50 lay in the range of 100 to 500 nM.

In the case of `O=c1cc(N2CCOCC2)cc(-c2cccc3c2Sc2ccc(N[C@H](COCc4ccccc4)CN4CCOCC4)cc2S3)[nH]1` [Example 1-59-2, (S)-6-(7-((1-(benzyloxy)-3-morpholinopropan-2-yl)amino)thianthren-1-yl)-4-morpholinopyridin-2(1H)-one], the IC50 lay in the range of 100 to 500 nM.

As for `O=c1cc(N2CCOCC2)cc(-c2cccc3c2Sc2ccc(NCc4cnccn4)cc2S3)[nH]1` [Example 1-12-42, 4-Morpholino-6-(7-((pyrazin-2-ylmethyl)amino)thianthren-1-yl) pyridin-2(1H)-one], the IC50 lay within 100 to 500 nM.

In the case of `CC(Nc1ccc2c(c1)Sc1cccc(-c3cc(N4CCOCC4)cc(=O)[nH]3)c1S2)c1ncc(CO)cn1` (stereo not shown) [Example 1-12-92, 6-(7-((1-(5-(Hydroxymethyl)pyrimidin-2-yl)ethyl)amino)thianthren-1-yl)-4-morpholino pyridin-2(1H)-one], the IC50 lay within 100 to 500 nM.

On to `COc1ccncc1CN1CCC(Nc2ccc3c(c2)Sc2cccc(-c4cc(N5CCOCC5)cc(=O)[nH]4)c2S3)C1` (stereo not shown) [Example 1-24-10, 6-(7-((1-((4-Methoxypyridin-3-yl)methyl)pyrrolidin-3-yl)amino)thianthren-1-yl)-4-morpholino pyridin-2(1H)-one], for which the IC50 is 100 to 500 nM.
